Results: ChEMBL document CHEMBL4028801, “A multifactorial approach to hepatobiliary transporter assessment enables improved therapeutic compound development” (Toxicol Sci, 2013)
Counter-ions that a name gives are not always drawn.

Experiments:
Bile salt export pump = Bile salt export pump (Homo sapiens, UniProt O95342); test: Inhibition of human BSEP overexpressed in Sf9 cell membrane vesicles assessed as uptake of [3H]-taurocholate in presence of ATP measured after 15 to 20 mins by membrane vesicle transport assay; format: ADME, cell-based
Bile salt export pump, sequence (O95342 whole entry): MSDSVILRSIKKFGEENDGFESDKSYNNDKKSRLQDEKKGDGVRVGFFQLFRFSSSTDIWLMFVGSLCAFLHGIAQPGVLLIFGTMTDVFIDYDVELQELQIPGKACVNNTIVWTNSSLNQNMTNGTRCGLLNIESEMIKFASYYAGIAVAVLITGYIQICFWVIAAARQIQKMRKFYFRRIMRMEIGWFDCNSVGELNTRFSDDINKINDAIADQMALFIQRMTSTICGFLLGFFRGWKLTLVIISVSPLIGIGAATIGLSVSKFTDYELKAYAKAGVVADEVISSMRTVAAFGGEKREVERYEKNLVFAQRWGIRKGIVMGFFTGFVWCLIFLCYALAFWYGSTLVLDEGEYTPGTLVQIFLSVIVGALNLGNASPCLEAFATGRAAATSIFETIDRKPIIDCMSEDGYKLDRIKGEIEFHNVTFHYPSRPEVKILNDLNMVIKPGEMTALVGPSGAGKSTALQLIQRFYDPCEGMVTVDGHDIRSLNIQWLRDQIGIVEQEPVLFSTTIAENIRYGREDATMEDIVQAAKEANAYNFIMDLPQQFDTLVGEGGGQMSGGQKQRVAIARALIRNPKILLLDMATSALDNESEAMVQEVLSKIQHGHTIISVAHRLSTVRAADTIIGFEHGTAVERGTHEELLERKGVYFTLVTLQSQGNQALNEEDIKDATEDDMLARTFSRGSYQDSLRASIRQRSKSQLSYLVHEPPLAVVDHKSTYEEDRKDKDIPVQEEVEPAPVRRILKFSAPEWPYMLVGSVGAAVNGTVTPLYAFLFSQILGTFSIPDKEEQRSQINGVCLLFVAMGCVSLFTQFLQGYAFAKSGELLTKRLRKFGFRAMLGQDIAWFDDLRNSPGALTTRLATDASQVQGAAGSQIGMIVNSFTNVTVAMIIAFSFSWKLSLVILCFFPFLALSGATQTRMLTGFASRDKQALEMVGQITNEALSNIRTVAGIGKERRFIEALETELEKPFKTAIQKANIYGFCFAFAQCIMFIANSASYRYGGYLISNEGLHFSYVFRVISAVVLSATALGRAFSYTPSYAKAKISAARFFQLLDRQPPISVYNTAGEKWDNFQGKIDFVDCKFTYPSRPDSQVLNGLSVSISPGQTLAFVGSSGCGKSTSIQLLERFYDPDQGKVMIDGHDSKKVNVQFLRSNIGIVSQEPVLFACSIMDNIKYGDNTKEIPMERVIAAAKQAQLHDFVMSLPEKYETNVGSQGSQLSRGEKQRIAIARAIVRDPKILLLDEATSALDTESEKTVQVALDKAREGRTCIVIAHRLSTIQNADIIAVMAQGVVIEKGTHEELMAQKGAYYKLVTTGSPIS

[1] = molecular target: ATP-binding cassette sub-family C member 3 (Homo sapiens, UniProt O15438); test: Inhibition of human MRP3 overexpressed in Sf9 insect cell membrane vesicles assessed as uptake of [3H]-estradiol-17beta-D-glucuronide in presence of ATP and GSH measured after 10 mins by membrane vesicle transport assay; format: ADME, cell-based
ATP-binding cassette sub-family C member 3, sequence (O15438 whole entry): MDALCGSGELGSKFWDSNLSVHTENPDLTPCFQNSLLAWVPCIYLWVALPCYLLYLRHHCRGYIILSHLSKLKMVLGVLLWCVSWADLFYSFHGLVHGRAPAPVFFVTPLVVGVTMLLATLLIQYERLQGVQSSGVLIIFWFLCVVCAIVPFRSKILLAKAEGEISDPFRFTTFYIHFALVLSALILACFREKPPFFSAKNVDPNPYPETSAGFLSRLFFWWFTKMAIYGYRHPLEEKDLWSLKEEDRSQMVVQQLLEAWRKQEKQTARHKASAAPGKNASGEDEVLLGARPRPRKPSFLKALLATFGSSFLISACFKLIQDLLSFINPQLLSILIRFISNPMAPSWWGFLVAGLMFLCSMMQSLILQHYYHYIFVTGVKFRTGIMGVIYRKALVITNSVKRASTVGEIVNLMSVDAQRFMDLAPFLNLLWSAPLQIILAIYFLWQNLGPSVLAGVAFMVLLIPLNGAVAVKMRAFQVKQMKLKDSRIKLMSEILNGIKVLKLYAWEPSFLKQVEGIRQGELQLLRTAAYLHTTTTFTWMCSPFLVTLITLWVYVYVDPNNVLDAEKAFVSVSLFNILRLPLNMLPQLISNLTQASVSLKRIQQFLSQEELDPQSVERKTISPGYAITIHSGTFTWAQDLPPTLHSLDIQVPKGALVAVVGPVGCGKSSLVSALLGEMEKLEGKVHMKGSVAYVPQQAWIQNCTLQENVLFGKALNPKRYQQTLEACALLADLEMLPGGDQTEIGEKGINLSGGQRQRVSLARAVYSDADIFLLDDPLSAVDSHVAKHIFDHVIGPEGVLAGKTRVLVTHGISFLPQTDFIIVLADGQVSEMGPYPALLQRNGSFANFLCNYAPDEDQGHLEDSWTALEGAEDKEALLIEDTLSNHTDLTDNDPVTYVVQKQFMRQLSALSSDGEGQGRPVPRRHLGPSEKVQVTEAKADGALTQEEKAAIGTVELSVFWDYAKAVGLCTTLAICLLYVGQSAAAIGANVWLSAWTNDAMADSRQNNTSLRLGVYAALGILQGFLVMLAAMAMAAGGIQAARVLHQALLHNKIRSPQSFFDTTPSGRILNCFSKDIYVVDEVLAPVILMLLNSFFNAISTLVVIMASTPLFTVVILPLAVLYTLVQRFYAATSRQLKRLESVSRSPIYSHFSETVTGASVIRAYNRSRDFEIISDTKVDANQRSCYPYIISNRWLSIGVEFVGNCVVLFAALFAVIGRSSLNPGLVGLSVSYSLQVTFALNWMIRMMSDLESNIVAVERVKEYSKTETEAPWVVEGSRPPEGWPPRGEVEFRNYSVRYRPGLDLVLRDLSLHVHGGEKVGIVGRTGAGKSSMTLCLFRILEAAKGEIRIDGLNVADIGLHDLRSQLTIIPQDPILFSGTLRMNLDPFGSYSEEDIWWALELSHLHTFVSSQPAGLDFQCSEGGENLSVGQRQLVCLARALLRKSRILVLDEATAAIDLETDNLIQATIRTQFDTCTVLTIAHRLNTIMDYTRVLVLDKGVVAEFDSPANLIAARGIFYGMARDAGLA

[2] = molecular target: ATP-binding cassette sub-family C member 2 (Homo sapiens, UniProt Q92887); test: Inhibition of human MRP2 overexpressed in Sf9 cell membrane vesicles assessed as uptake of [3H]-estradiol-17beta-D-glucuronide in presence of ATP and GSH measured after 20 mins by membrane vesicle transport assay
ATP-binding cassette sub-family C member 2, sequence (Q92887 whole entry): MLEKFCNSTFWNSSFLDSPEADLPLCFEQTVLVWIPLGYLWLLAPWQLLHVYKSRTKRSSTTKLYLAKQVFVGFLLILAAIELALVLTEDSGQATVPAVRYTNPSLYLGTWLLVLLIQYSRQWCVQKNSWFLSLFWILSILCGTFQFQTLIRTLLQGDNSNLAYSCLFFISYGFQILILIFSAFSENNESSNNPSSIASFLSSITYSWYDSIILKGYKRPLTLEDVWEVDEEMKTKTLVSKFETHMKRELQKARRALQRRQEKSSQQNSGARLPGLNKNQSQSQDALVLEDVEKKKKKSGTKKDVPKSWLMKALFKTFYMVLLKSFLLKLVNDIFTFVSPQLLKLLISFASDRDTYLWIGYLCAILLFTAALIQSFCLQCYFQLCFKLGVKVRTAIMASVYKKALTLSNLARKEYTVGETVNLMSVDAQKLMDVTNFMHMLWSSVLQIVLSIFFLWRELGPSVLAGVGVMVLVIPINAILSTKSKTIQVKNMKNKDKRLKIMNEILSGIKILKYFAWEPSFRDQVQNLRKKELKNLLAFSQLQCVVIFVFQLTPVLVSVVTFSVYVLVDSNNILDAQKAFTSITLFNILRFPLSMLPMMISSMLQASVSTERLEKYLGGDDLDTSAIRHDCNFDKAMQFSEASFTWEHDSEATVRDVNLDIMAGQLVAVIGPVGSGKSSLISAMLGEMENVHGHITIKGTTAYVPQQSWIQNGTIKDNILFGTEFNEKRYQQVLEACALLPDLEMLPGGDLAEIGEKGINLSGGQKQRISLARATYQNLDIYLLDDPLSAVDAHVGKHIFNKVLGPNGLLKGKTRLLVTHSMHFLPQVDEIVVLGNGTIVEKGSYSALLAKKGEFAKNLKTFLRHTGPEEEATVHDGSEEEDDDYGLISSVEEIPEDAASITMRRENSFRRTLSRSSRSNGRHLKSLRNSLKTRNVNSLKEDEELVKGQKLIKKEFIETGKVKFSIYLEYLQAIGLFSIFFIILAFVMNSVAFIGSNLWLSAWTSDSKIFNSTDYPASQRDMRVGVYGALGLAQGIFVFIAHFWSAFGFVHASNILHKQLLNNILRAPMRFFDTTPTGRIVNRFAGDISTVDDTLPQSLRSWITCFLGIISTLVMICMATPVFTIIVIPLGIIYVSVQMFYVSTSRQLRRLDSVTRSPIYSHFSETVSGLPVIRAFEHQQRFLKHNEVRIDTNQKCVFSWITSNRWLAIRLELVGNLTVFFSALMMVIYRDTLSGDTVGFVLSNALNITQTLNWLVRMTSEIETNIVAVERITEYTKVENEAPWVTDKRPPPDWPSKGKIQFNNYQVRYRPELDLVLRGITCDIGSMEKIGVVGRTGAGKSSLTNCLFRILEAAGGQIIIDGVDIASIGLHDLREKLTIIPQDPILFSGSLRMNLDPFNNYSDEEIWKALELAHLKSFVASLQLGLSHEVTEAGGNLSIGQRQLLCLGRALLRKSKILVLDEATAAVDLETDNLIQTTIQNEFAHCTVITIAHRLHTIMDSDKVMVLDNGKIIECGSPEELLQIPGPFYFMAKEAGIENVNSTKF

[3] = molecular target: T1, ATP-binding cassette sub-family C member 4 (Homo sapiens, UniProt O15439); test: Inhibition of human MRP4 overexpressed in Sf9 cell membrane vesicles assessed as uptake of [3H]-estradiol-17beta-D-glucuronide in presence of ATP and GSH measured after 20 mins by membrane vesicle transport assay; format: ADME, cell-based
T1 sequence (O15439 whole entry): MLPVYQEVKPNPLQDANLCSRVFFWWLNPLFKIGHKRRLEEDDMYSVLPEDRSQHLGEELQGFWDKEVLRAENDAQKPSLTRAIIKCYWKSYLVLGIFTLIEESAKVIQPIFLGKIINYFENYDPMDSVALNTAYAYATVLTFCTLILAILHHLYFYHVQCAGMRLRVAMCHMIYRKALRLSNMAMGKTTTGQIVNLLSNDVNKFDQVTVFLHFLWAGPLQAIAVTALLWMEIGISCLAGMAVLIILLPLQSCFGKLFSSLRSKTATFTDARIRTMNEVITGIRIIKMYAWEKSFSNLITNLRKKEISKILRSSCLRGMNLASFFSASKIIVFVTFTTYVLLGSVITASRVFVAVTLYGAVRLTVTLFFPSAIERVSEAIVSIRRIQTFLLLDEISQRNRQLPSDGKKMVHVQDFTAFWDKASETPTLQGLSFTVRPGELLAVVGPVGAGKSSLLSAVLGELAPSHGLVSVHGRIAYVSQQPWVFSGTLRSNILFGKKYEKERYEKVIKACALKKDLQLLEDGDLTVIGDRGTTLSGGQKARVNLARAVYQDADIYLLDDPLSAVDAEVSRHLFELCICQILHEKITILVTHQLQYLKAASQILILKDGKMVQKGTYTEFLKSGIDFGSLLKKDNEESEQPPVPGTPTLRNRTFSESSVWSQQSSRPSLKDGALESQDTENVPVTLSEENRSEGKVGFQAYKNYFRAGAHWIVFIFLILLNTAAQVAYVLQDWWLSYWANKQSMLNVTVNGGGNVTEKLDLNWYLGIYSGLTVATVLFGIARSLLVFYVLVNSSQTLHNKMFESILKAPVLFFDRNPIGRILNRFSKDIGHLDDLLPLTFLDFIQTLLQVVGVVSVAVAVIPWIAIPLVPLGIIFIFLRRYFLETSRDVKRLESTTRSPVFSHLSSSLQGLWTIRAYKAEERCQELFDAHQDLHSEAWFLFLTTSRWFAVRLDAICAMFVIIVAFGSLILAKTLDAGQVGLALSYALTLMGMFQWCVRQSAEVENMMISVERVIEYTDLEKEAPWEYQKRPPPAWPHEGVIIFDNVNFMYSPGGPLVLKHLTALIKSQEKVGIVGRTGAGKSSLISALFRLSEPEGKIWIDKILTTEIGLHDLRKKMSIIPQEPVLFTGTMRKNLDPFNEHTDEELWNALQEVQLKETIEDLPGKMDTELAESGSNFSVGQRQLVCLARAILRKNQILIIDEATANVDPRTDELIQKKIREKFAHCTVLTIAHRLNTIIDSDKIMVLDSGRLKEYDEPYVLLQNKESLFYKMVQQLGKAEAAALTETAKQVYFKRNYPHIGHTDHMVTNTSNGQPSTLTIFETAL

| SMILES | IC50 (Bile salt export pump) [µM] | IC50 [1] [µM] | IC50 [2] [µM] | IC50 [3] [µM] |
| --- | --- | --- | --- | --- |
| CN(CCCN1c2ccccc2CCc2ccccc21)CC(=O)c1ccc(Cl)cc1 [LOFEPRAMINE] | > 133 | > 133 | > 133 | > 133 |
| CCOC(=O)[C@H](CCc1ccccc1)N[C@@H](C)C(=O)N1CCC[C@H]1C(=O)O [ENALAPRIL MALEATE] | > 133 | > 133 | > 133 | > 133 |
| CN(C/C=C/C#CC(C)(C)C)Cc1cccc2ccccc12 [TERBINAFINE HYDROCHLORIDE] | > 133 | > 133 | > 133 | > 133 |
| CC(C)(C#N)c1cc(Cn2cncn2)cc(C(C)(C)C#N)c1 [ANASTROZOLE] | > 133 | > 133 | > 133 | > 133 |
| COc1c(N2CCNC(C)C2)c(F)cc2c(=O)c(C(=O)O)cn(C3CC3)c12 (centres undefined) [GATIFLOXACIN] | > 133 | > 133 | > 133 | > 133 |
| Cc1cccc(Nc2ccccc2C(=O)O)c1C [MEFENAMIC ACID] | > 133 | > 133 | > 133 | > 133 |
| CNCC[C@H](Oc1cccc2ccccc12)c1cccs1 [DULOXETINE HYDROCHLORIDE] | > 133 | > 133 | > 133 | > 133 |
| CN1C(C(=O)Nc2ccccn2)=C(O)c2sccc2S1(=O)=O [TENOXICAM] | > 133 | > 133 | > 133 | > 133 |
| COc1cc2c3cc1Oc1cc(ccc1O)C[C@@H]1c4c(cc(OC)c(O)c4Oc4ccc(cc4)C[C@@H]3N(C)CC2)CC[N+]1(C)C [TUBOCURARINE] | > 133 | > 133 | > 133 | 9.6 |
| O=C1NCCN1CCN1CCC(c2cn(-c3ccc(F)cc3)c3ccc(Cl)cc23)CC1 [SERTINDOLE] | 82.7 | > 133 | > 133 | > 133 |
| C[C@]12C/C(=C/O)C(=O)C[C@@H]1CC[C@@H]1[C@@H]2CC[C@@]2(C)[C@H]1CC[C@]2(C)O [OXYMETHOLONE] | 48.7 | > 133 | > 133 | > 133 |
| COc1c(N2C[C@@H]3CCCN[C@@H]3C2)c(F)cc2c(=O)c(C(=O)O)cn(C3CC3)c12 [MOXIFLOXACIN HYDROCHLORIDE] | > 133 | > 133 | > 133 | > 133 |
| Clc1cccc(N2CCNCC2)c1 [CHLOROPHENYLPIPERAZINE] | > 133 | > 133 | > 133 | > 133 |
| Nc1nc(N)c2nc(-c3ccccc3)c(N)nc2n1 | > 133 | > 133 | > 133 | > 133 |
| COc1ccc(C(CN(C)C)C2(O)CCCCC2)cc1 (centres undefined) [VENLAFAXINE] | > 133 | > 133 | > 133 | > 133 |
| C#CCN[C@@H]1CCc2ccccc21 [RASAGILINE MESYLATE] | > 133 | > 133 | > 133 | > 133 |
| CC[C@@]1(O)C(=O)OCc2c1cc1n(c2=O)Cc2cc3ccccc3nc2-1 [CAMPTOTHECIN] | > 133 | > 133 | > 133 | 7.4 |
| CC(=O)N(CC(O)CO)c1c(I)c(C(=O)NCC(O)CO)c(I)c(C(=O)NCC(O)CO)c1I (centres undefined) [IOHEXOL] | > 133 | > 133 | > 133 | > 133 |
| Cc1c(C(=O)NN2CCCCC2)nn(-c2ccc(Cl)cc2Cl)c1-c1ccc(Cl)cc1 [RIMONABANT] | 25 | > 133 | > 133 | > 133 |
| CCCN1C[C@H](CSC)C[C@@H]2c3cccc4[nH]cc(c34)C[C@H]21 [PERGOLIDE MESYLATE] | > 133 | > 133 | > 133 | > 133 |
| CNC1=Nc2ccc(Cl)cc2C(c2ccccc2)=[N+]([O-])C1 [CHLORDIAZEPOXIDE] | 44.1 | > 133 | > 133 | > 133 |
